From ChEMBL document CHEMBL3232845 (Bioorg Med Chem Lett, 2014)

Assays:
[1] = Clearance in mouse at 2.5 mg/kg, iv; format: ADME, organism-based; parameters: dose 2.5 mg/kg, route intravenous; conditions: in vivo
[2] = biological target: Aurora kinase A (Homo sapiens) (UniProt O14965); assay: Inhibition of human AURKA assessed as enzyme activity at 1 uM relative to control; parameters: scale not given: the % may be the effect or the level left
[3] = biological target: Tyrosine-protein kinase receptor UFO (Homo sapiens) (UniProt P30530); assay: Inhibition of human Axl assessed as enzyme activity at 1 uM relative to control; parameters: scale not given: the % may be the effect or the level left
[4] = biological target: Serine/threonine-protein kinase BRSK1 (Homo sapiens) (UniProt Q8TDC3); assay: Inhibition of human BrSK1 assessed as enzyme activity at 1 uM relative to control; parameters: scale not given: the % may be the effect or the level left
[5] = biological target: Calcium/calmodulin-dependent protein kinase type 1D (Homo sapiens) (UniProt Q8IU85); assay: Inhibition of human CAMK1d assessed as enzyme activity at 1 uM relative to control; parameters: scale not given: the % may be the effect or the level left
[6] = biological target: Calcium/calmodulin-dependent protein kinase type II subunit delta (Homo sapiens) (UniProt Q13557); assay: Inhibition of human CAMK2d assessed as enzyme activity at 1 uM relative to control; parameters: scale not given: the % may be the effect or the level left
[7] = biological target: Calcium/calmodulin-dependent protein kinase type II subunit gamma (Homo sapiens) (UniProt Q13555); assay: Inhibition of human CAMK2g assessed as enzyme activity at 1 uM relative to control; parameters: scale not given: the % may be the effect or the level left
[8] = biological target: Cyclin-dependent kinase 1/cyclin B1 (Homo sapiens) (UniProt P06493+P14635); assay: Inhibition of human CDK1/cyclinB assessed as enzyme activity at 1 uM relative to control; format: protein-complex assay; parameters: scale not given: the % may be the effect or the level left
[9] = biological target: Casein kinase I isoform delta (Homo sapiens) (UniProt P48730); assay: Inhibition of human CK1delta assessed as enzyme activity at 1 uM relative to control; parameters: scale not given: the % may be the effect or the level left
[10] = biological target: Casein kinase I isoform gamma-3 (Homo sapiens) (UniProt Q9Y6M4); assay: Inhibition of human CK1gamma3 assessed as enzyme activity at 1 uM relative to control; parameters: scale not given: the % may be the effect or the level left
[11] = biological target: Casein kinase II subunit alpha' (Homo sapiens) (UniProt P19784); assay: Inhibition of human CK2alpha2 assessed as enzyme activity at 1 uM relative to control; parameters: scale not given: the % may be the effect or the level left
[12] = biological target: Dual specificity protein kinase CLK2 (Homo sapiens) (UniProt P49760); assay: Inhibition of human CLK2 assessed as enzyme activity at 1 uM relative to control; parameters: scale not given: the % may be the effect or the level left
[13] = biological target: Epidermal growth factor receptor (Homo sapiens) (UniProt P00533); assay: Inhibition of human EGFR assessed as enzyme activity at 1 uM relative to control; parameters: scale not given: the % may be the effect or the level left
[14] = biological target: Ephrin type-A receptor 2 (Homo sapiens) (UniProt P29317); assay: Inhibition of human EphA2 assessed as enzyme activity at 1 uM relative to control; parameters: scale not given: the % may be the effect or the level left
[15] = biological target: Tyrosine-protein kinase SYK (Homo sapiens) (UniProt P43405); assay: Inhibition of human Syk assessed as enzyme activity at 1 uM relative to control; parameters: scale not given: the % may be the effect or the level left
[16] = biological target: Serine/threonine-protein kinase TBK1 (Homo sapiens) (UniProt Q9UHD2); assay: Inhibition of human TBK1 assessed as enzyme activity at 1 uM relative to control; parameters: scale not given: the % may be the effect or the level left
[17] = biological target: Testis-specific serine/threonine-protein kinase 1 (Homo sapiens) (UniProt Q9BXA7); assay: Inhibition of human TSSK1 assessed as enzyme activity at 1 uM relative to control; parameters: scale not given: the % may be the effect or the level left
[18] = biological target: Tyrosine-protein kinase ZAP-70 (Homo sapiens) (UniProt P43403); assay: Inhibition of human ZAP-70 assessed as enzyme activity at 1 uM relative to control; parameters: scale not given: the % may be the effect or the level left
[19] = biological target: Mitogen-activated protein kinase 14 (Homo sapiens) (UniProt Q16539); assay: Inhibition of human p38alpha assessed as enzyme activity at 1 uM relative to control; parameters: scale not given: the % may be the effect or the level left
[20] = biological target: Serine/threonine-protein kinase Nek11 (Homo sapiens) (UniProt Q8NG66); assay: Inhibition of human NEK11 assessed as enzyme activity at 1 uM relative to control; parameters: scale not given: the % may be the effect or the level left
[21] = biological target: Serine/threonine-protein kinase PAK 5 (Homo sapiens) (UniProt Q9P286); assay: Inhibition of human PAK5 assessed as enzyme activity at 1 uM relative to control; parameters: scale not given: the % may be the effect or the level left
[22] = biological target: Platelet-derived growth factor receptor alpha (Homo sapiens) (UniProt P16234); assay: Inhibition of human PDGFRalpha assessed as enzyme activity at 1 uM relative to control; parameters: scale not given: the % may be the effect or the level left
[23] = biological target: cAMP-dependent protein kinase catalytic subunit alpha (Homo sapiens) (UniProt P17612); assay: Inhibition of human PKAC-alpha assessed as enzyme activity at 1 uM relative to control; parameters: scale not given: the % may be the effect or the level left
[24] = biological target: Serine/threonine-protein kinase D2 (Homo sapiens) (UniProt Q9BZL6); assay: Inhibition of human PKD2 assessed as enzyme activity at 1 uM relative to control; parameters: scale not given: the % may be the effect or the level left
[25] = biological target: cGMP-dependent protein kinase 1 (Homo sapiens) (UniProt Q13976); assay: Inhibition of human PRKG1beta assessed as enzyme activity at 1 uM relative to control; parameters: scale not given: the % may be the effect or the level left
[26] = biological target: Phosphorylase b kinase gamma catalytic chain, liver/testis isoform (Homo sapiens) (UniProt P15735); assay: Inhibition of human PhKgamma2 assessed as enzyme activity at 1 uM relative to control; parameters: scale not given: the % may be the effect or the level left
[27] = biological target: Serine/threonine-protein kinase PLK3 (Homo sapiens) (UniProt Q9H4B4); assay: Inhibition of human Plk3 assessed as enzyme activity at 1 uM relative to control; parameters: scale not given: the % may be the effect or the level left
[28] = biological target: Receptor-interacting serine/threonine-protein kinase 2 (Homo sapiens) (UniProt O43353); assay: Inhibition of human RIPK2 assessed as enzyme activity at 1 uM relative to control; parameters: scale not given: the % may be the effect or the level left
[29] = biological target: Ribosomal protein S6 kinase alpha-1 (Homo sapiens) (UniProt Q15418); assay: Inhibition of human Rsk1 assessed as enzyme activity at 1 uM relative to control; parameters: scale not given: the % may be the effect or the level left
[30] = biological target: Ephrin type-A receptor 3 (Homo sapiens) (UniProt P29320); assay: Inhibition of human EphA3 assessed as enzyme activity at 1 uM relative to control; parameters: scale not given: the % may be the effect or the level left
[31] = biological target: Fibroblast growth factor receptor 4 (Homo sapiens) (UniProt P22455); assay: Inhibition of human FGFR4 assessed as enzyme activity at 1 uM relative to control; parameters: scale not given: the % may be the effect or the level left
[32] = biological target: G protein-coupled receptor kinase 5 (Homo sapiens) (UniProt P34947); assay: Inhibition of human GRK5 assessed as enzyme activity at 1 uM relative to control; parameters: scale not given: the % may be the effect or the level left
[33] = biological target: Rhodopsin kinase GRK7 (Homo sapiens) (UniProt Q8WTQ7); assay: Inhibition of human GRK7 assessed as enzyme activity at 1 uM relative to control; parameters: scale not given: the % may be the effect or the level left
[34] = biological target: Glycogen synthase kinase-3 beta (Homo sapiens) (UniProt P49841); assay: Inhibition of human GSK3beta assessed as enzyme activity at 1 uM relative to control; parameters: scale not given: the % may be the effect or the level left
[35] = biological target: Homeodomain-interacting protein kinase 3 (Homo sapiens) (UniProt Q9H422); assay: Inhibition of human HIPK3 assessed as enzyme activity at 1 uM relative to control; parameters: scale not given: the % may be the effect or the level left
[36] = biological target: Insulin receptor-related protein (Homo sapiens) (UniProt P14616); assay: Inhibition of human IRR assessed as enzyme activity at 1 uM relative to control; parameters: scale not given: the % may be the effect or the level left
[37] = biological target: Serine/threonine-protein kinase STK11 (Homo sapiens) (UniProt Q15831); assay: Inhibition of human LKB1 assessed as enzyme activity at 1 uM relative to control; parameters: scale not given: the % may be the effect or the level left
[38] = biological target: Serine/threonine-protein kinase haspin (Homo sapiens) (UniProt Q8TF76); assay: Inhibition of human Haspin assessed as enzyme activity at 1 uM relative to control; parameters: scale not given: the % may be the effect or the level left
Chain of Serine/threonine-protein kinase haspin (Homo sapiens) (Q8TF76 whole entry): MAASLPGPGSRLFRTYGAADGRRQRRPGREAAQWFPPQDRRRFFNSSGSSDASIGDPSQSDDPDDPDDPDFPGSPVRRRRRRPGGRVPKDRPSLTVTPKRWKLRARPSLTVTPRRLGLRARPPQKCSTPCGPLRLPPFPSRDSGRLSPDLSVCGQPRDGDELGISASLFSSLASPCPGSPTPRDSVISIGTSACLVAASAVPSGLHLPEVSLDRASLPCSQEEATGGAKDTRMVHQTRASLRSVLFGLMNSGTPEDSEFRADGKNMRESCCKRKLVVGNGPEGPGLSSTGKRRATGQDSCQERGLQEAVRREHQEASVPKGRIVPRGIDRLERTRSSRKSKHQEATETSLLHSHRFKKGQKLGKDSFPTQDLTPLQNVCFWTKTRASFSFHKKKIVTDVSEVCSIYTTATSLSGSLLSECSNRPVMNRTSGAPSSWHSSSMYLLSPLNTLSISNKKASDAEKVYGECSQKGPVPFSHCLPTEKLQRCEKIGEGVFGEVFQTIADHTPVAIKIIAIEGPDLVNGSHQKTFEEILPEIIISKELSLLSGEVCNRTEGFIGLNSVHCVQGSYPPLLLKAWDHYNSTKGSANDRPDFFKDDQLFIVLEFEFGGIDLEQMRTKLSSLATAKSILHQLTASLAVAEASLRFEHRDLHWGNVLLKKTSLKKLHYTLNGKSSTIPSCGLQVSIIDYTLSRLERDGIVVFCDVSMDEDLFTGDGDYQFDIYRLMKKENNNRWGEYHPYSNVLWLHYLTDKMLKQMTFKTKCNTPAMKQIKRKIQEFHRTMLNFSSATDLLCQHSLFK

Chain of Ribosomal protein S6 kinase alpha-1 (Homo sapiens) (Q15418 whole entry): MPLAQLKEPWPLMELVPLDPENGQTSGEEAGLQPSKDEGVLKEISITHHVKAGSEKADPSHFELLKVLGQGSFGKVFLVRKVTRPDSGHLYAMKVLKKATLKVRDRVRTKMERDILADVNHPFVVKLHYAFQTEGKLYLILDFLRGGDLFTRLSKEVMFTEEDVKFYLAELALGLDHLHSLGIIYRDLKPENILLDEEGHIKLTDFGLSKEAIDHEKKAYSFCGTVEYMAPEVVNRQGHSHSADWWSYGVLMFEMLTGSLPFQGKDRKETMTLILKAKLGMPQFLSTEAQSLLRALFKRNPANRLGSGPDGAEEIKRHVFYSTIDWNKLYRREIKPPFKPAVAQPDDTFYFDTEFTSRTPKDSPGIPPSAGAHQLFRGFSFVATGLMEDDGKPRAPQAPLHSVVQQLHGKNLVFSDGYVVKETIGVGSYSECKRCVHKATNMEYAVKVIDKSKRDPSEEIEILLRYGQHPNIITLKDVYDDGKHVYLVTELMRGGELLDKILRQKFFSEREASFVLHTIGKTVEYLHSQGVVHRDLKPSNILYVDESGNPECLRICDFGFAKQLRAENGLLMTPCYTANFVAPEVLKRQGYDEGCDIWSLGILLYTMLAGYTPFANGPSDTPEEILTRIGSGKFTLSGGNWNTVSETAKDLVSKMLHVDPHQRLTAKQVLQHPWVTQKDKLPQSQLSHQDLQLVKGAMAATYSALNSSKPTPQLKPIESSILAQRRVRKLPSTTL
Chain of Receptor-interacting serine/threonine-protein kinase 2 (Homo sapiens) (O43353 whole entry): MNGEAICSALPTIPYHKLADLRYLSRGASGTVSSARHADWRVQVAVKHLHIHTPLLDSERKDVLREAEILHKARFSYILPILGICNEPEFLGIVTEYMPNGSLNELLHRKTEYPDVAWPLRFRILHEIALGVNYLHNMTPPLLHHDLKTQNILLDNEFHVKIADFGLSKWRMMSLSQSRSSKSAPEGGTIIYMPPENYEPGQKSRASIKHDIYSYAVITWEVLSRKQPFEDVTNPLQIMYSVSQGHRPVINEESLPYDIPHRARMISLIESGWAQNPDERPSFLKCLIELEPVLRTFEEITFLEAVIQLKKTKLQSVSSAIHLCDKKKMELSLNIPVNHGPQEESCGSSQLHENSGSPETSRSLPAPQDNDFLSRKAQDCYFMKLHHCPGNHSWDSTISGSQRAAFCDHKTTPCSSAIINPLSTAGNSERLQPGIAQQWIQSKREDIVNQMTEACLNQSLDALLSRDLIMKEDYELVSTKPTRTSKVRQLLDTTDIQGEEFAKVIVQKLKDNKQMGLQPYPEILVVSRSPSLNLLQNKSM
Chain of Rhodopsin kinase GRK7 (Homo sapiens) (Q8WTQ7 whole entry): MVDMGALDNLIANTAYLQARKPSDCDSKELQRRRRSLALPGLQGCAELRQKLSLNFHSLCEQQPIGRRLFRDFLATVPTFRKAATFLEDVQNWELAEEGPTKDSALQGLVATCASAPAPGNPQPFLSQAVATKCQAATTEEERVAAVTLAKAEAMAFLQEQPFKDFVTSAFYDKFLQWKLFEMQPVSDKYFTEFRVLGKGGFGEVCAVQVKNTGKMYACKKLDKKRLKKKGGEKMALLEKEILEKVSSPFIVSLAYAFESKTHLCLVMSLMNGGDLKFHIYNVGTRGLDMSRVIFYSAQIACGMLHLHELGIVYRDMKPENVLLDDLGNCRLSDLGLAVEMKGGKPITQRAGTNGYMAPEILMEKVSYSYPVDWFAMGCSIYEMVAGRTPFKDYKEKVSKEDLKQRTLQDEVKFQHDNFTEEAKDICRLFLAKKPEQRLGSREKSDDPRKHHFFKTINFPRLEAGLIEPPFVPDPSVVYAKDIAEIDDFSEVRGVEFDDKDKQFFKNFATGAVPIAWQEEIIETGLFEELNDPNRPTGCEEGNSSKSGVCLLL
Chain of Epidermal growth factor receptor (Homo sapiens) (P00533 whole entry): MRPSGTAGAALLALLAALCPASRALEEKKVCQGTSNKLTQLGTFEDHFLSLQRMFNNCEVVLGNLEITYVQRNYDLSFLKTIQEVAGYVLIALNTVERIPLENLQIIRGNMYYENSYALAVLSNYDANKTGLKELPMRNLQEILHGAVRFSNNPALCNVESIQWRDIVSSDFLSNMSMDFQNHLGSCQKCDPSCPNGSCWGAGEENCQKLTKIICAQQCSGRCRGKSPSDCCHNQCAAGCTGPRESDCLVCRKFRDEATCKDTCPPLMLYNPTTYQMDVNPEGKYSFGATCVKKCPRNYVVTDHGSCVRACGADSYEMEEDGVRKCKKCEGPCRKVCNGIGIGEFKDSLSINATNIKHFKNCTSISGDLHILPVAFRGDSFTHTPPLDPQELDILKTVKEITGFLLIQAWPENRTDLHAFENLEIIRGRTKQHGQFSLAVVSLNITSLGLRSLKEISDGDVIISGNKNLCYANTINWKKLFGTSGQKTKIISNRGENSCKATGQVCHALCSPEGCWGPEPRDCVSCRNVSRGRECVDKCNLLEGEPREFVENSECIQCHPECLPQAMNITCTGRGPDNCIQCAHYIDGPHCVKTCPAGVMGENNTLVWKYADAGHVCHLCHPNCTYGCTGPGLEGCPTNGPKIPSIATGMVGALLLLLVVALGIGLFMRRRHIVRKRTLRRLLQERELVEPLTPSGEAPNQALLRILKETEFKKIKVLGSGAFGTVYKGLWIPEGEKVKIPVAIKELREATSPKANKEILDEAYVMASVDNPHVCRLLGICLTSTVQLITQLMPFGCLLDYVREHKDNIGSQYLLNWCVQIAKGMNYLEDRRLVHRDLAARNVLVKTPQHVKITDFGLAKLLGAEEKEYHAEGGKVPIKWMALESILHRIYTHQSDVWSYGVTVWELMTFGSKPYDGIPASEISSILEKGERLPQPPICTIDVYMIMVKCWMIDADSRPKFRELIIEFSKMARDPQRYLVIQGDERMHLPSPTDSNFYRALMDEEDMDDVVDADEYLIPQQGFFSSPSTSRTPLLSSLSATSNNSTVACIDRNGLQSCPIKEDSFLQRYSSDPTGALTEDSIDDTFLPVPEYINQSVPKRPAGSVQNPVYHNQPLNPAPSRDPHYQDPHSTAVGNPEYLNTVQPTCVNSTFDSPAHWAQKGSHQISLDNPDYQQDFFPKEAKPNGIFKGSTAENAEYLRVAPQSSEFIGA
Chain of Serine/threonine-protein kinase TBK1 (Homo sapiens) (Q9UHD2 whole entry): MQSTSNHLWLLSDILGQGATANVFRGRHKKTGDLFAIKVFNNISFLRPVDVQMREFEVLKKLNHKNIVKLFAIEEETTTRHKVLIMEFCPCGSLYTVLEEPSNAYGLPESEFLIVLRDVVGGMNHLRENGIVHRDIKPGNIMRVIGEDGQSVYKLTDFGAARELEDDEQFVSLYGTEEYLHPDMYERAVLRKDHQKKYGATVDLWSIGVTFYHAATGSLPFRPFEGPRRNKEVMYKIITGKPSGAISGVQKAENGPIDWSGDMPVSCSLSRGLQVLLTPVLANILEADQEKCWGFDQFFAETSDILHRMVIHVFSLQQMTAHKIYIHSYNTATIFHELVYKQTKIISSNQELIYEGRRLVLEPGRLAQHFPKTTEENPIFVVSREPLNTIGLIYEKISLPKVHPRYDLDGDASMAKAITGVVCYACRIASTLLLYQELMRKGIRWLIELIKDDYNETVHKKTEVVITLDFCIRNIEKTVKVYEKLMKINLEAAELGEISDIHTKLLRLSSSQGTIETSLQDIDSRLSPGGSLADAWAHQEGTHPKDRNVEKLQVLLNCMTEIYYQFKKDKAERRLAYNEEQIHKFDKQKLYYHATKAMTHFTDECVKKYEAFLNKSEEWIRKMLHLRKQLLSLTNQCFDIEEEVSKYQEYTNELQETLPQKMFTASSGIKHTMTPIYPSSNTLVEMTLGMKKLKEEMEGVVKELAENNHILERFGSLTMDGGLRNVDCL
Chain of Mitogen-activated protein kinase 14 (Homo sapiens) (Q16539 whole entry): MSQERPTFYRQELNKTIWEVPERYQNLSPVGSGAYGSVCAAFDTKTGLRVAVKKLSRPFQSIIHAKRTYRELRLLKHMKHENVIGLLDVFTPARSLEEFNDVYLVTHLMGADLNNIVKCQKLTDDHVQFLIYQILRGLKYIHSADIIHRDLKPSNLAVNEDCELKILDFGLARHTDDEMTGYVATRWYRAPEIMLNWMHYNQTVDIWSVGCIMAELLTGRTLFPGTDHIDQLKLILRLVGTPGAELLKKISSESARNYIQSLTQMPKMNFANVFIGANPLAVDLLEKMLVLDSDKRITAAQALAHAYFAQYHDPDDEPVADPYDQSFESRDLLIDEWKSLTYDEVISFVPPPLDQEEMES

CCCS(=O)(=O)Nc1cccc(Nc2ccc3ncn(C)c(=O)c3c2)c1C#N
clearance [1]: 1.6 mL/min/kg | Activity [2]: 97.5% | Activity [3]: 93% | Activity [4]: 102% | Activity [5]: 116% | Activity [6]: 94.5% | Activity [7]: 104% | Activity [8]: 103% | Activity [9]: 95.5% | Activity [10]: 91.5% | Activity [11]: 99% | Activity [12]: 110% | Activity [13]: 102% | Activity [14]: 99.5% | Activity [15]: 117% | Activity [16]: 98% | Activity [17]: 98% | Activity [18]: 112% | Activity [19]: 103% | Activity [20]: 93.5% | Activity [21]: 99.5% | Activity [22]: 102% | Activity [23]: 110% | Activity [24]: 95.5% | Activity [25]: 106% | Activity [26]: 112% | Activity [27]: 99.5% | Activity [28]: 98% | Activity [29]: 145% | Activity [30]: 108% | Activity [31]: 134% | Activity [32]: 102% | Activity [33]: 103% | Activity [34]: 95.5% | Activity [35]: 106% | Activity [36]: 101% | Activity [37]: 90.5% | Activity [38]: 99.5%
